Laboratory results: patent US8835428B2, “Diacylglycerol acyltransferase inhibitors” (Piramal Enterprises Limited, priority 2008, dated 2014)

Molecular target: T1, hDGAT1 (Homo sapiens, UniProt O75907)
T1 construct: host or cells: Sf9 insect cells (baculovirus); microsomal preparation
T1 sequence (O75907 1-488): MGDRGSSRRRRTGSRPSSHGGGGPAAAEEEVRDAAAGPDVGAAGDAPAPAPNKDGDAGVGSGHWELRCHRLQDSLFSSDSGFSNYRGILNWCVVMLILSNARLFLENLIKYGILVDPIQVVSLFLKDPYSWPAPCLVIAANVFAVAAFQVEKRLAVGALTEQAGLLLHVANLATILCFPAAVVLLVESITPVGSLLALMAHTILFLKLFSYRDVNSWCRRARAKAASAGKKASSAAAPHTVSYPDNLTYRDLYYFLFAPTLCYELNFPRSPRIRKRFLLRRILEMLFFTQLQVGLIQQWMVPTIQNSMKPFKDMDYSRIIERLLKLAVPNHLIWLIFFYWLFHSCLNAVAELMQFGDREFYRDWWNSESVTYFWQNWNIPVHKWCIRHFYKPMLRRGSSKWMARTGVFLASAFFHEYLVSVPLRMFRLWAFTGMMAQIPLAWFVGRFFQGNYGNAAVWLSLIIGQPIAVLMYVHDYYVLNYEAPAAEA
Experiment: In-vitro DGAT1 assay (hDGAT1 microsomes from Sf9 cells, 14C oleoyl CoA, triglyceride formation)
Type: biochemical
Conditions: for inhibition at 10 µM / % inhibition of hDGAT1: At 10 μM
Procedure, shortened: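 Human DGAT1 in baculovirus-infected Sf9 microsomes (2.5–10 μg), [14C]oleoyl-CoA with 409.5, 1228.5 or 1638 μM 1,2-dioleoyl-sn-glycerol, Tris-HCl pH 7.4 buffer with BSA. Compounds screened at 10, 5 and 1 μM in duplicate. Reaction 10 min at 37 °C; heptane-extracted [14C]triglyceride counted by scintillation.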

Row | SMILES | inhibition at 1 µM [%] | inhibition at 10 µM [%] | further results
1 | CC(C)[C@H](NC(=O)c1nc(-c2ccc(NC(=O)Nc3ccccc3F)cc2)no1)C(=O)O [Example 349, (S)-2-(3-(4-(3-(2-Fluorophenyl)ureido)phenyl)-1,2,4-oxadiazole-5-carboxamido)-3-methylbutanoic acid] |  |  | inhibition at 5 µM: 50 to 75%
2 | COC(=O)[C@@H](NC(=O)c1cc(-c2ccc(NC(=O)Nc3ccc(F)c(F)c3)cc2)no1)C(C)C [Example 129, (S)-methyl 2-(3-(4-(3-(3,4-difluorophenyl)ureido)phenyl)isoxazole-5-carboxamido)-3-methylbutanoate] | 50 to 75 |  | 
3 | CC(C)[C@H](NC(=O)c1cc(-c2ccc(NC(=O)Nc3ccc(F)c(F)c3)cc2)no1)C(=O)O [Example 130, (S)-2-(3-(4-(3-(3,4-difluorophenyl)ureido)phenyl)isoxazole-5-carboxamido)-3-methylbutanoic acid] | 75 to 100 |  | 
4 | CC(C)[C@H](NC(=O)c1cc(-c2ccc(NC(=O)Nc3ccc(Cl)cc3C(F)(F)F)cc2)no1)C(=O)O [Example 215, (S)-2-(3-(4-(3-(4-chloro-2-(trifluoromethyl)phenyl)ureido)phenyl)isoxazole-5-carboxamido)-3-methylbutanoic acid] | 75 to 100 |  | 
5 | CC(C)[C@@H](NC(=O)c1cc(-c2ccc(Nc3nc4ccc(F)cc4s3)cc2)no1)C(=O)O [Example 42, (R)-2-({3-[4-(6-Fluoro-benzothiazol-2-ylamino)-phenyl]-isoxazole-5-carbonyl}-amino)-3-methyl-butyric acid] |  | 50 to 75 | 
6 | CC(C)[C@@H](N/C(=N/O)c1cc(-c2ccc(NC(=O)Nc3ccccc3F)cc2)no1)C(=O)O [Example 226, (R,E)-2-(3-(4-(3-(2-Fluorophenyl)ureido)phenyl)-N′-hydroxyisoxazole-5-carboximidamido)-3-methylbutanoic acid] | 0 to 50 |  | 
7 | COc1ccc(OC)c(NC(=O)Nc2ccc(-c3cc(C(=O)N[C@H](C(=O)O)C(C)C)on3)cc2)c1 [Example 166, (S)-2-(3-(4-(3-(2,5-Dimethoxyphenyl)ureido)phenyl)isoxazole-5-carboxamido)-3-methylbutanoic acid] | 50 to 75 |  | 
8 | CSc1ccc(NC(=O)Nc2ccc(-c3cc(C(=O)N[C@H](C(=O)O)C(C)C)on3)cc2)cc1 [Example 197, (S)-3-methyl-2-(3-(4-(3-(4-(methylthio)phenyl)ureido)phenyl)isoxazole-5-carboxamido)butanoic acid] | 75 to 100 |  | 
9 | COC(=O)[C@@H]1CCCN1C(=O)c1cc(-c2ccc(Nc3nc4ccc(F)cc4s3)cc2)no1 [Example 18, (S)-1-{3-[4-(6-Fluoro-benzothiazol-2-ylamino)-phenyl]-isoxazole-5-carbonyl}-pyrrolidine-2-carboxylic acid methyl ester] |  | 50 to 75 | 
10 | COC(=O)C(NC(=O)c1cc(-c2ccc(NC(=O)Nc3ccc(F)cc3)cc2C)no1)C(C)C (stereo not drawn) [Example 133, Methyl 2-(3-(4-(3-(4-fluorophenyl)ureido)-2-methylphenyl)isoxazole-5-carboxamido)-3-methylbutanoate] |  | 50 to 75 | 
11 | COC(=O)[C@H](CC(C)C)NC(=O)c1cc(-c2ccc(NC(=O)Nc3ccc(F)cc3)cc2)no1 [Example 86, (S)-2-[(3-{4-[3-(4-Fluoro-phenyl)-ureido]-phenyl}-isoxazole-5-carbonyl)-amino]-4-methyl-pentanoic acid methyl ester] |  | 0 to 50 | 
12 | COC[C@H](NC(=NO)c1cc(-c2ccc(Nc3nc4ccc(F)cc4s3)cc2)no1)C(=O)OC [Example 16, (S)-2-({3-[4-(6-Fluoro-benzothiazol-2-ylamino)-phenyl]-N-hydroxy-isoxazole-5-carboximidoyl}-amino)-3-methoxy-propionic acid methyl ester] |  | 50 to 75 | 
13 | CC(C)C(NC(=O)c1cc(-c2ccc(NC(=O)C(=O)Nc3cccc(C(F)(F)F)c3)cc2)no1)C(=O)O (stereo not drawn) [Example 337, 3-Methyl-2-(3-(4-(2-oxo-2-(3-(trifluoromethyl)phenylamino)acetamido)phenyl)isoxazole-5-carboxamido)butanoic acid] | 0 to 50 |  | 
14 | CC(C)C[C@H](NC(=O)c1cc(-c2ccc(NC(=O)Nc3ccc(F)cc3)cc2)no1)C(=O)O [Example 87, (S)-2-[(3-{4-[3-(4-Fluoro-phenyl)-ureido]-phenyl}-isoxazole-5-carbonyl)-amino]-4-methyl-pentanoic acid] |  | 75 to 100 | 
15 | CC(C)[C@H](NC(=O)c1cc(-c2ccc(NC(=O)Nc3cc(Cl)ccc3Oc3ccccc3)cc2)no1)C(=O)O [Example 236, (S)-2-(3-(4-(3-(5-Chloro-2-phenoxyphenyl)ureido)phenyl)isoxazole-5-carboxamido)-3-methylbutanoic acid] | 75 to 100 |  | 
16 | CC(C)C[C@H](NC(=O)c1onc(-c2ccc(Nc3nc4ccc(F)cc4s3)cc2)c1-c1ccccc1)C(=O)O [Example 95, (S)-2-({3-[4-(6-Fluoro-benzothiazol-2-ylamino)-phenyl]-4-phenyl-isoxazole-5-carbonyl}-amino)-4-methyl-pentanoic acid] |  | 0 to 50 | 
17 | COC[C@H](NC(=NO)c1cc(-c2cccc(Nc3nc4ccc(F)cc4s3)c2)no1)C(=O)O [Example 33, (S)-2-({3-[3-(6-Fluoro-benzothiazol-2-ylamino)-phenyl]-N-hydroxy-isoxazole-5-carboximidoyl}-amino)-3-methoxy-propionic acid] |  | 0 to 50 | 
18 | CC(C)[C@@H](NC(=S)c1cc(-c2ccc(Nc3nc4ccc(F)cc4s3)cc2)no1)C(=O)O [Example 43, (R)-2-({3-[4-(6-Fluoro-benzothiazol-2-ylamino)-phenyl]-isoxazole-5-carbothioyl}-amino)-3-methyl-butyric acid] |  | 50 to 75 | 
19 | O=C(O)[C@@H]1CCCN1C(=S)c1cc(-c2cccc(Nc3nc4ccc(F)cc4s3)c2)no1 [Example 37, (S)-1-{3-[3-(6-Fluoro-benzothiazol-2-ylamino)-phenyl]-isoxazole-5-carbothioyl}-pyrrolidine-2-carboxylic acid] |  | 0 to 50 | 
20 | CC(C)[C@H](NC(=O)c1onc(-c2ccc(NC(=O)Nc3ccc(F)cc3)cc2)c1-c1ccccc1)C(=O)O [Example 93, (S)-2-[(3-{4-[3-(4-Fluoro-phenyl)-ureido]-phenyl}-4-phenyl-isoxazole-5-carbonyl)-amino]-3-methyl-butyric acid] |  | 0 to 50 | 
21 | CC(C)[C@H](NC(=O)c1cc(-c2ccc(NC(=O)Nc3ccc(F)cc3)c(F)c2)no1)C(=O)O [Example 97] |  |  | % inhibition of hDGAT1: +++ (>75% Inhibition ≦100)
22 | C=C(NC(=O)c1cc(-c2ccc(NC(=O)Nc3ccccc3F)cc2)no1)C(=O)O [Example 302, 2-(3-(4-(3-(2-Fluorophenyl)ureido)phenyl)isoxazole-5-carboxamido) acrylic acid] | 50 to 75 |  | 
23 | COC(=O)[C@H](CC(C)C)NC(=S)c1cc(-c2ccc(Nc3nc4ccc(F)cc4s3)cc2)no1 [Example 48, (S)-2-({3-[4-(6-Fluoro-benzothiazol-2-ylamino)-phenyl]-isoxazole-5-carbothioyl}-amino)-4-methyl-pentanoic acid methyl ester] |  | 0 to 50 | 
24 | O=C(O)C1(NC(=NO)c2cc(-c3ccc(Nc4nc5ccc(F)cc5s4)cc3)no2)CCCC1 [Example 66, 1-({3-[4-(6-Fluoro-benzothiazol-2-ylamino)-phenyl]-N-hydroxy-isoxazole-5-carboximidoyl}-amino)-cyclopentanecarboxylic acid] |  | 0 to 50 | 
25 | CC(C)C[C@H](NC(=NO)c1cc(-c2ccc(Nc3nc4ccc(F)cc4s3)cc2)no1)C(=O)O [Example 51, (S)-2-({3-[4-(6-Fluoro-benzothiazol-2-ylamino)-phenyl]-N-hydroxy-isoxazole-5-carboximidoyl}-amino)-4-methyl-pentanoic acid] |  | 0 to 50 | 
26 | CC(C)[C@H](NC(=O)c1csc(-c2ccc(NC(=O)Nc3cccc(C(F)(F)F)c3)cc2)n1)C(=O)O [Example 367, (S)-3-Methyl-2-(2-(4-(3-(3-(trifluoromethyl)phenyl)ureido)phenyl)thiazole-4-carboxamido)butanoic acid] | 0 to 50 |  | 
27 | Cc1ccc(NC(=O)Nc2ccc(-c3cc(C(=O)NC(C(=O)O)C(C)C)on3)cc2)cc1F (stereo not drawn) [Example 250, 2-(3-(4-(3-(3-Fluoro-4-methylphenyl)ureido)phenyl)isoxazole-5-carboxamido)-3-methylbutanoic acid] | 75 to 100 |  | 
28 | COC(=O)[C@@H](NC(=O)c1nc(-c2ccc(NC(=S)Nc3cccc(F)c3)cc2)no1)C(C)C [Example 353, (S)-Methyl 2-(3-(4-(3-(3-fluorophenyl)thioureido)phenyl)-1,2,4-oxadiazole-5-carboxamido)-3-methylbutanoate] |  |  | inhibition at 5 µM: 0 to 50%
29 | COC(=O)[C@@H](NC(=O)c1cc(-c2ccc(NC(=O)Nc3ccc(F)cc3)c(F)c2)no1)C(C)C [Example 96] |  |  | % inhibition of hDGAT1: ++ (>50% Inhibition ≦75)
30 | CC(C)[C@H](NC(=O)c1cc(-c2ccc(NC(=O)Nc3c(F)cccc3C(F)(F)F)cc2)no1)C(=O)O [Example 230, (S)-2-(3-(4-(3-(2-Fluoro-6-(trifluoromethyl)phenyl)ureido)phenyl)isoxazole-5-carboxamido)-3-methylbutanoic acid] | 0 to 50 |  | 
